Experimental data taken from the NIST ThermoML archive (doi:10.1021/je8009336).

Columns and labels:
[1] = xn = mol fraction of the nth substance listed; settings: 313.15 K, 101 kPa, Liquid; for speed of sound: Vibrating Tube Densimeter; for mass density: Vibrating tube method
[2] = refractive index (Na D-line) (dimensionless); xn = mol fraction of the nth substance listed; settings: 313.15 K, 101 kPa, Liquid, Standard Abbe refractometry
[3] = Liquid; for mass density: Vibrating tube method; for speed of sound: Vibrating Tube Densimeter
[4] = refractive index (Na D-line) (dimensionless); settings: 101.33 kPa, Liquid, Standard Abbe refractometry

CC1CCCCC1 [methylcyclohexane] + c1ccccc1
Settings	mass density, [1] [kg/m3]	refractive index, [2]	speed of sound, [1] [m/s]
x1 = 0.0486	849.3	1.48201	1220.3
x1 = 0.0982	841.3	1.47621	1211.2
x1 = 0.1995	826.7	1.46566	1195.3
x1 = 0.2999	813.5	1.45619	1182.5
x1 = 0.4038	801.3	1.44745	1172
x1 = 0.4998	791.3	1.44043	1164.6
x1 = 0.612	780.7	1.43297	1158.1
x1 = 0.7053	772.6	1.42729	1154.2
x1 = 0.7994	765.3	1.42214	1151.5
x1 = 0.8991	758.4	1.41728	1149.9
x1 = 0.953	754.8	1.4148	1149.5
x1 = 1	752	1.41272	1149.6

c1ccccc1 [benzene] + C1CCCC1
x2 = 0
Settings	mass density [kg/m3]	refractive index	speed of sound [m/s]
[1]	857.5	–	1230.5
[2]	–	1.48777	–

C1CCCCC1 [cyclohexane] + Cc1ccccc1
Settings	mass density, [1] [kg/m3]	refractive index, [2]	speed of sound, [1] [m/s]
x1 = 0.0377	844.4	1.48212	1236.8
x1 = 0.0967	838.2	1.47761	1230
x1 = 0.1945	828.5	1.47007	1220.1
x1 = 0.2433	823.4	1.46621	1215.4
x1 = 0.3985	808.6	1.45475	1202.3
x1 = 0.5672	793.4	1.44276	1191.4
x1 = 0.5965	790.9	1.44073	1189.8
x1 = 0.7019	781.9	1.43356	1185.1
x1 = 0.7958	774.4	1.4276	1182.2
x1 = 0.9011	766.5	1.42097	1181.2
x1 = 0.95	763	1.41807	1180.9
x1 = 1	759.6	1.41513	1181.7

Cc1ccccc1 [toluene]
[3]
Settings	mass density, 298.15 K [kg/m3]	mass density, 313.15 K [kg/m3]	speed of sound, 313.15 K [m/s]
101 kPa	–	848.2	1240.9
101.33 kPa	862.1	–	–

[4]
Settings	refractive index
298.15 K	1.49399
313.15 K	1.48509

c1ccccc1 [benzene] + C1CCCCC1
x2 = 0
Settings	mass density [kg/m3]	refractive index	speed of sound [m/s]
[1]	857.5	–	1230.5
[2]	–	1.48777	–

CC1CCCCC1 [methylcyclohexane]
[3]
Settings	mass density, 298.15 K [kg/m3]	mass density, 313.15 K [kg/m3]	speed of sound, 313.15 K [m/s]
101 kPa	–	752	1149.6
101.33 kPa	764.9	–	–

[4]
Settings	refractive index
298.15 K	1.42053
313.15 K	1.41272

CC1CCCCC1 [methylcyclohexane] + Cc1ccccc1
Settings	mass density, [1] [kg/m3]	refractive index, [2]	speed of sound, [1] [m/s]
x1 = 0.0488	842.1	1.48065	1233.3
x1 = 0.0977	836.1	1.4763	1226
x1 = 0.1967	824.6	1.4675	1212.4
x1 = 0.2969	813.6	1.45909	1200.1
x1 = 0.3751	805.5	1.45314	1191.7
x1 = 0.5049	792.7	1.44348	1179.2
x1 = 0.5986	784	1.43702	1171.5
x1 = 0.7022	774.9	1.43008	1164
x1 = 0.8016	766.8	1.42397	1158.1
x1 = 0.9003	759.1	1.41817	1153.2
x1 = 0.9487	755.5	1.41549	1151.2
x1 = 1	752	1.41272	1149.6

CC1CCCCC1 [methylcyclohexane] + CCc1ccccc1
Settings	mass density, [1] [kg/m3]	refractive index, [2]	speed of sound, [1] [m/s]
x1 = 0.0509	843.8	1.48108	1249.9
x1 = 0.0975	838.9	1.4774	1243.4
x1 = 0.1957	828.6	1.46965	1230.3
x1 = 0.2794	820	1.46339	1219.8
x1 = 0.4006	807.9	1.45428	1205.4
x1 = 0.4962	798.4	1.44736	1194.9
x1 = 0.5977	788.6	1.44003	1184.5
x1 = 0.6968	779.2	1.43303	1174.9
x1 = 0.7988	769.7	1.42601	1165.7
x1 = 0.8973	760.9	1.41941	1157.5
x1 = 0.9483	756.4	1.41609	1153.5
x1 = 1	752	1.41272	1149.6

C1CCCC1 [cyclopentane] + c1ccccc1
Settings	mass density, [1] [kg/m3]	refractive index, [2]	speed of sound, [1] [m/s]
x1 = 0.0366	852	1.48417	1224.4
x1 = 0.0941	843.4	1.47833	1215.7
x1 = 0.1945	828.6	1.46795	1200.6
x1 = 0.2706	817.8	1.46049	1190.2
x1 = 0.3937	800.7	1.44843	1175.5
x1 = 0.4893	787.8	1.43934	1165
x1 = 0.5917	774.4	1.42988	1155.3
x1 = 0.6893	762.1	1.4211	1147.2
x1 = 0.7983	748.6	1.41158	1139.7
x1 = 0.8971	736.8	1.40315	1134.2
x1 = 0.9471	731	1.39904	1132
x1 = 1	725	1.39456	1130
